Experimental data taken from patent US5306808A, “Peptide derivatives having vasodilating activity” (Takeda Chemical Industries, Ltd., priority 1991, dated 1994).
Where a SMILES comes first, the peptide text is derived from it. Bridges are numbered along the chain shown (N, C = ends). Where no end group is shown, it is not given here.

Experiments:
endothelin receptor = assay: Assay of affinity for receptor (I125-ET-1 binding to porcine myocardial membrane fraction); details: ET-1 = 100
Experimental: A membrane fraction prepared from the porcine heart was diluted to 0.15 mg/ml by using a buffer solution [PBS (pH 7.4) containing 0.5 mM CaCl2, 1.0 mM MgCl2, 0.02% NaN3, 0.1% BSA (fraction V, Sigma), 0.1 mM PMSF and 0.1 μg/ml pepstatin (binding buffer)] for assay, and 100 μl of the resulting suspension of the membrane fraction was poured into each assay tube to use for assay. To this suspension of the membrane fraction were added 2 μl of an endothelin-1 solution labeled with 5 μM radioactive iodine. Further, 3 μl of a test peptide solution was added thereto, followed by maintenance at a temperature of 25° C. for 1 hour. Then, the resulting suspension was diluted with 900 μl of the buffer solution for assay cooled with ice, and thereafter separated into a supernatant and a precipitate by centrifugation at 12,000×g for 10 minutes. Cell membranes and an endothelin receptor embedded therein were contained in the precipitate, and radioactive iodine-labeled endothelin combined with the receptor was also recovered in the precipitate. Accordingly, the amount of radioactive iodine-labeled endothelin combined with the endothelin receptor was determined by measuring the amount of radioactive iodine contained in the precipitate with a gamma-ray counter. Compounds in which the affinity for the endothelin receptor is high and the maximum constriction is not high are antagonists. Contrary to this, compounds in which the affinity for the endothelin receptor is high and the maximum constriction is high are agonists.

porcine coronary artery = assay type: cell-based; details: for Constrictor activity (Relative potency): ET-1 = 100; for Maximum Constriction (% 60 mM KCl): normalized to constriction response to 60 mM KCl
Experimental: Each of helical strips 2 mm×15 mm prepared from the coronary right ramus circumflexus from which the adventitial connective tissues and the endothelial cells were removed was set to each of 4 ml organ baths. Its tension was detected by a force displacement transducer UL-10GR (Minebea), and recorded by a polygraph (NEC Sanei). The organ baths were maintained at 37° C., and filled with a Krebs-Henseleit solution (composition:118 mM NaCl, 4.7 mM KCl, 2.5 mM CaCl2, 1.2 mM KH2 PO4, 25.0 mM NaHCO3, 1.2 mM MgSO4, 10.0 mM glucose) gassed with 95% O2 and 5% CO2.
A tension of 1.25 to 1.5 g was applied to each of the strips, followed by equilibration for 1.5 hours. 60 mM KCl was repeatedly applied thereto at intervals of 30 minutes until the constriction response became constant. After additional equilibration for 1.5 hours, a sample for assay was given. The constriction of the strips was normalized by the constriction response of the individual strips to 60 mM KCl and statistically processed.
(2) As to the antagonist property or the agonist property of the peptide derivatives of present invention to endothelin, the affinity for an endothelin receptor and the constrictor activity to porcine coronary smooth muscles (according to the method described in (1) described above) were assayed. The affinity for the receptor was assayed by the following method.

## CC[C@H](C)[C@H](NC(=O)[C@@H](NC(=O)[C@H](CC(C)C)NC(=O)[C@H](Cc1c[nH]cn1)NC(=O)[C@@H]1CSSC[C@H](N)C(=O)N[C@@H](CO)C(=O)N[C@H]2CSSC[C@H](NC(=O)[C@H](CCC(=O)O)NC(=O)[C@H](CCCCN)NC(=O)[C@H](CC(=O)O)NC(=O)[C@H](CCSC)NC(=O)[C@H](CC(C)C)NC(=O)[C@H](CO)NC(=O)[C@H](CO)NC2=O)C(=O)N[C@@H](C(C)C)C(=O)N[C@@H](Cc2ccc(O)cc2)C(=O)N[C@@H](Cc2ccccc2)C(=O)N1)[C@@H](C)O)C(=O)N[C@H](C(=O)N[C@@H](Cc1c[nH]c2ccccc12)C(=O)O)[C@@H](C)CC [Example 51, [Thr^18]-ET-1] (H-CSCSSLMDKECVYFCHLTIIW-OH; disulfide 1-15, 3-11)
Endothelin receptor
  Receptor binding activity (Relative potency): 100
Porcine coronary artery
  Constrictor activity (Relative potency): 26
  Maximum Constriction (% 60 mM KCl): 76 % 60 mM KCl

## CC[C@H](C)[C@H](NC(=O)[C@H](CC(=O)O)NC(=O)[C@H](CC(C)C)NC(=O)[C@H](Cc1c[nH]cn1)NC(=O)[C@@H]1CSSC[C@H](N)C(=O)N[C@@H](CO)C(=O)N[C@@H](CC(C)C)C(=O)N[C@@H](CO)C(=O)N[C@@H](CO)C(=O)N[C@@H](CC(C)C)C(=O)N[C@@H](CCSC)C(=O)N[C@@H](CC(=O)O)C(=O)N[C@@H](CCCCN)C(=O)N[C@@H](CCC(=O)O)C(=O)N[C@@H](C)C(=O)N[C@@H](C(C)C)C(=O)N[C@@H](Cc2ccc(O)cc2)C(=O)N[C@@H](Cc2ccccc2)C(=O)N1)C(=O)N[C@H](C(=O)N[C@@H](Cc1c[nH]c2ccccc12)C(=O)O)[C@@H](C)CC [Example 52, [Leu^3, Ala^11]-ET-1] (H-CSLSSLMDKEAVYFCHLDIIW-OH; disulfide 1-15)
Endothelin receptor
  Receptor binding activity (Relative potency): 0.35
Porcine coronary artery
  Constrictor activity (Relative potency): < 0.1
  Maximum Constriction (% 60 mM KCl): 6 % 60 mM KCl

## [Asn^18 ]-ET-1 (CSCSSLMDKECVYFCHLNIIW; ends and bridges not checked; cysteine pairing not given here; UniProt P05305 53-73, looked up, variant D18N) [Example 35]
Endothelin receptor
  Receptor binding activity (Relative potency): 9.1
Porcine coronary artery
  Constrictor activity (Relative potency): < 0.1
  Maximum Constriction (% 60 mM KCl): 43 % 60 mM KCl

## [Trp^3,11 ]-ET-1 (CSWSSLMDKEWVYFCHLDIIW; ends and bridges not checked; cysteine pairing not given here; UniProt P05305 53-73, looked up, variant C3W C11W) [Example 4]
Endothelin receptor
  Receptor binding activity (Relative potency): 0.27
Porcine coronary artery
  Constrictor activity (Relative potency): < 0.1
  Maximum Constriction (% 60 mM KCl): 10 % 60 mM KCl

## [Val^3,Ala^11 ]-ET-1 (CSVSSLMDKEAVYFCHLDIIW; ends and bridges not checked; cysteine pairing not given here; UniProt P05305 53-73, looked up, variant C3V C11A) [Example 41]
Endothelin receptor
  Receptor binding activity (Relative potency): 4.5
Porcine coronary artery
  Constrictor activity (Relative potency): 73
  Maximum Constriction (% 60 mM KCl): 130 % 60 mM KCl
